Data on 13 compounds can be found in patent publication US6211182A, “Imidazole compounds substituted with a six or seven membered heterocyclic ring containing two nitrogen atoms” (Schering Corporation, priority 1999, dated 2001).

For one assay, the target named is T1, H3 receptor (Cavia porcellus, UniProt Q9JI35).
T1 construct: The source of the H3 receptors in this experiment was guinea pig brain; from tissue; host or cells: guinea pig brain membranes
Description: H3 Receptor Binding Assay (guinea pig brain membranes, [3H]R-α-methylhistamine or [3H]-N-methylhistamine). The procedure:
Procedure for H3 Receptor Binding Assay
The source of the H3 receptors in this experiment was guinea pig brain. The animals used weighed 400-600 g. The tissue was homogenized using a Polytron in a solution of 50 mM Tris, pH 7.5. The final concentration of tissue in the homogenization buffer was 10% w/v. The homogenates were centrifuged at 1000×g for 10 min. in order to remove clumps of tissue and debris. The resulting supernatants were then centrifuged at 50,000×g for 20 min. in order to sediment the membranes, which were next washed 3 times in homogenization buffer (50,000×g for 20 min. each). The membranes were frozen and stored at -70° C. until needed.
All compounds to be tested were dissolved in DMSO and then diluted into the binding buffer (50 mM Tris, pH 7.5) such that the final concentration was 2 μg/mL with 0.1% DMSO. Membranes were then added (400 μg of protein) to the reaction tubes. The reaction was started by the addition of 3 nM [^3 H]R-α-methylhistamine (8.8 Ci/mmol) or [^3 H]-N-methylhistamine (80 Ci/mmol) and incubated at 30° C. for 30 min. Bound ligand was separated from unbound ligand by filtration, and the amount of radioactive ligand bound to the membranes was quantitated by liquid scintillation spectrometry. All incubations were performed in duplicate and the standard error was less than 10% in all instances.

Another assay has as its system mice. The settings on record: Yokoyama et al. 1993; cited from earlier work.
In a further assay the test system is rat. Particulars: Clapham et al. 1993; cited from earlier work.
Setting [1] is: 3 nM radioligand, 30° C., 30 min.

T1 sequence (Q9JI35 whole entry): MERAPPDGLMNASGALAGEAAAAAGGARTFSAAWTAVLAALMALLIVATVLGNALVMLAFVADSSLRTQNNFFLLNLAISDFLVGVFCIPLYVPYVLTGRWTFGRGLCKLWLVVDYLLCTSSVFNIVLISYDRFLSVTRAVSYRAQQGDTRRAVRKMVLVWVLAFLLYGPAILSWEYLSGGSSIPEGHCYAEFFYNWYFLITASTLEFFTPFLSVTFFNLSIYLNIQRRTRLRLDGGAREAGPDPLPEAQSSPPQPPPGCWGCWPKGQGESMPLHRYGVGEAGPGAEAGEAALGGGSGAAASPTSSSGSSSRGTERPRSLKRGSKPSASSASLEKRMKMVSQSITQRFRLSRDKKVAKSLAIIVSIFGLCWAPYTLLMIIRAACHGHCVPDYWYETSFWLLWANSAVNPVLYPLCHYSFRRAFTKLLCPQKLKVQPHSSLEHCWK

In general, Ki refers to a measure of affinity in units of concentration, obtained from inhibition or displacement. Read a low Ki as tighter binding. The compound `O=C(Nc1cccc(Cl)c1)N1CCN(CCCCc2c[nH]cn2)CC1` showed an inhibition constant (Ki) on H3 receptor (setting [1]) of 6 nM. The same measure, in the same setting: next, `O=C(Nc1ccc(C(F)(F)F)cc1)N1CCN(CCCCc2c[nH]cn2)CC1`: 14 nM. For `CCOC(=O)C1CN(Cc2ccc(Cl)cc2)CCN1CCCCc1c[nH]cn1` (stereo not drawn), the Ki at H3 receptor (unit given as mM) came out at 26 nM.

At H3 receptor (setting [1]), `O=C(NCCCCc1c[nH]cn1)C1CN(Cc2ccc(Cl)cc2)CCN1Cc1ccc(Cl)cc1` (stereo not drawn) came in with a Ki of 20 nM. Turning to `S=C(NC1CCCCC1)N1CCC(c2cnc[nH]2)CC1` [thioperamide], in the assay with mice, the “duration of each phase of convulsion” value is “decreased the duration of each phase of convulsion” and the electroconvulsive threshold entry is given as “raised the electroconvulsive threshold”. Besides, the “short-term memory and reversal learning” value in the assay with rat was “can improve short-term memory and reversal learning in the rat”. `CCOC(=O)C1CNCCN1CCCCc1c[nH]cn1` (stereo not drawn) displayed an inhibition constant Ki on H3 receptor (setting [1]) of 32 nM. On to `O=C(NCCCCCc1c[nH]cn1)C1CNCCN1` (stereo not drawn), for which the inhibitory constant (Ki) on H3 receptor (setting [1]) was determined as 39 nM. Regarding `O=C(NCCCCc1c[nH]cn1)C1CN(Cc2ccc(Cl)cc2)CCN1` (stereo not drawn), the Ki on H3 receptor (setting [1]) is 46 nM. On the same count and under the same terms, next, `O=C(/C=C/c1cccnc1)N1CCN(CCCCc2c[nH]cn2)CC1`: 25 nM; `Clc1ccc(CN2CCN(Cc3ccc(Cl)cc3)C(CCc3c[nH]cn3)C2)cc1` (stereo not drawn): 45 nM; `O=C(/C=C/c1ccccc1)N1CCN(CCCCc2c[nH]cn2)CC1`: 6 nM.

On to `O=C(NCCCCc1c[nH]cn1)C1CNCCN1Cc1ccc(Cl)cc1` (stereo not drawn), for which, on H3 receptor (setting [1]), affinity was put at a Ki of 38 nM. In turn, `CCOC(=O)C1CN(CCCCc2c[nH]cn2)CCN1Cc1ccc(Cl)cc1` (stereo not drawn) showed an inhibition constant (Ki) on H3 receptor (setting [1]) of 46 nM.
